Test results published in US7875260B2, “Imaging agents for functional imaging of lymphatic structures” (Baylor College of Medicine, priority 2006, dated 2011).

Experiments:
[1] = target: T1, LYVE-1 present on the lymph endothelium (swine hindlimb lymph vessel) (Sus scrofa, UniProt I3LTD0); test: Staining of lymph vessels with HA-NIR, compared with ICG; assay type: in vivo
T1 construct: LYVE-1 present on the lymph endothelium; from tissue; host or cells: live white Yorkshire swine, hindlimb lymph vessels (lymph endothelium)
T1 sequence (I3LTD0 25-326): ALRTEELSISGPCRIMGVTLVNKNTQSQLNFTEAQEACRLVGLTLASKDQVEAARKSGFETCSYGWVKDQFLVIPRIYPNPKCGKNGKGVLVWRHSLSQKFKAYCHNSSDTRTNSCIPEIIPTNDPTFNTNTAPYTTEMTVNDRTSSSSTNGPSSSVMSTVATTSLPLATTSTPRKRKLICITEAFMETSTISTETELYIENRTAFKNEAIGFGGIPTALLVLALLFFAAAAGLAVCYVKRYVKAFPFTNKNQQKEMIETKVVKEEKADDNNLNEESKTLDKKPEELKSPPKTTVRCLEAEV
Protocol: Four, two-month old, 60 lb white Yorkshire swine (K Bar Livestock, HC 69 Box 270 Sabinal, Tex.) were imaged using protocols which were approved by the Baylor College of Medicine Institutional Animal Care and Use Committee. The animals were anesthetized, intubated, and maintained with isoflurane. Animal body temperature was maintained at 100° F. using a warming blanket. At the end of the procedure, the animals were euthanized and lymph nodes resected with fluorescence guidance.
Continuous-wave optical imaging of the fluorescent NIR dyes was performed with a custom built intensified charged-coupled device (CCD). Reynolds J S, Troy T L, and Sevick-Muraca E M. Multipixel techniques for frequency-domain photon migration imaging. Biotechnol Prog 13: 669-680, 1997., incorporated herein by reference in its entirety for all purposes. Briefly, the device had three principal components: 1) a NIR-sensitive image intensifier (model FS9910C ITT Night Vision, Roanoke, Va.); 2) a 16-bit dynamic range, frame transfer CCD camera (Roper Scientific, Tucson, Ariz.); and 3) a 785-nm laser diode (Thorlabs) used to provide the excitation light for activating ICG and hyaluronan-NIR. The 785-nm laser diode beam was expanded by using a planoconvex lens and a holographic optical diffuser such that approximately 0.08 m^2 of the swine's body was illuminated. A 785-nm holographic notch band rejection filter (model HNPF-785.0-2.0, Kaiser Optical Systems, Ann Arbor, Mich.) and an 830-nm image quality bandpass filter (model 830.0-2.0, Andover, Salem, N.H.) were placed before the 28-mm Nikkor lens (Nikon) to selectively reject the excitation light and pass the emitted 830-nm wavelength. […]
Images were processed using MATLAB (The Mathworks, Natick, Mass.), ImageJ (National Institutes of Health, Bethesda, Md.), and V++ (Digital Optics, Auckland, New Zealand). […] To reveal the frequency of the pulsatile flow, which is a characteristic of pumping lymphatics, the mean fluorescence intensity from a fixed region of interest on a lymph channel was selected and plotted as a function of imaging time. […]

[2] = cited from earlier work

Compound	normalized fluorescent intensity at fixed ROI as a function of time (FIG. 10C) ([1]; image acquisition 6 min, leg lymph vessel)	propulsion of packets ([1]; intradermal, 64 μM HA-NIR or 32 μM ICG, swine hindlimb vessel)	fluorescent intensity as a function of vessel length and time (FIGS. 11C, 11D) ([1]; swine lymph vessels)	fraction broken down in the liver ([2]; liver)	fraction degraded in lymph nodes ([2]; lymph nodes)
CC1(C)C(/C=C/C=C/C=C/C=C2\N(CCCCS(=O)(=O)O)c3ccc4ccccc4c3C2(C)C)=[N+](CCCCS(=O)(=O)[O-])c2ccc3ccccc3c21 [ICG, indocyanine green]	fluctuation and net reduction of intensity	observed	varies with time and length along the vessel	–	–
hyaluronic acid [HA]	–	–	–	10%	90%
